# From patent publication US12392781B2, “Deuterated indole heptamethine cyanine dyes” (University of Notre Dame du Lac, priority 2021, dated 2025)
# Entries after “also recorded” stand apart in the source; their conditions may differ.
# Experiments:
# [1] = target: bovine serum albumin (BSA) (Bos taurus, UniProt P02769); experiment: Bovine serum albumin (BSA) binding by tryptophan fluorescence quenching titration; settings: pH 7.4 PBS buffer, 37° C.; for Association constant Ka, titration isotherm fitted to 1:1 model: N=3
# Experimental: The titration experiments measured quenching of bovine serum albumin (BSA, 1 mL of 2 μM solution in pH 7.4 PBS buffer) tryptophan fluorescence at 37° C. as dye was added incrementally. A fluorescence spectrum (ex: 280 nm, slit width: 2 nm) was acquired after each dye aliquot was added (2 μL of 1 mM dye stock solutions in water). After each aliquot addition, the solution was mixed and allowed to equilibrate at 37° C. for 5 min before spectral acquisition. Association constants were determined by plotting the change in fluorescence intensity at 345 nm verses molar equivalents using 1:1 binding stoichiometry on the BindFit software. Experiments were done in triplicates. Equations for determining association and dissociation constant are shown below:
# [formula] [formula] where F is the fluorescence intensity of tryptophan after adding certain amount of dye, k is the proportionality constant for BSA tryptophan under the experimental condition, Ka is the association constant, [BSA]
# [2] = Photophysical properties at room temperature (absorption, fluorescence, quantum yield); format: physicochemical; settings: for λ abs max / λ em max / ε: room temperature; for ε: Beer-Lambert fit 1-5 μM; for ΦF (fluorescence quantum yield): absolute (integrating sphere) for ICG, ICG-d5, ICG-d7, relative to ICG for 1; for Brightness: in M^-1 cm^-1 (unit assumed)
# Experimental: Reagents and solvents were purchased from Sigma-Aldrich, VWR, Oakwood, Thermo Fisher and used without further purification unless stated otherwise. Column chromatography was performed using Biotage Sfär C18 Duo columns (part #FSUD-0401). Reverse- phase thin layer chromatography (TLC) experiments were performed on C18 TLC plates with F254s indicator (MilliporeSigma, part #1.15683). ^1H NMR spectra were recorded on a Bruker 500 NMR spectrometer. Chemical shifts are presented in ppm and referenced by residual solvent peak. High-resolution mass spectrometry (HRMS) was performed using a time-of-flight (TOF) analyzer with electrospray ionization (ESI), with sample dilution in water/acetonitrile as the standard produre. Electronic absorption spectra were recorded on an Evolution 201 UV/vis spectrometer with Thermo Insight software. Fluorescence spectra were collected on a Horiba Fluoromax-4 fluorometer with a maximum detection wavelength of 850 nm. Analyte solutions were prepared on the lab bench (exposed to air and light) using in HPLC grade water (Sigma-Aldrich), dimethylsulfoxide (Sigma-Aldrich), pH 7.4 1× phosphate buffered saline (Thermo Fisher) or fetal bovine serum (Sigma-Aldrich). Stock solutions for spectroscopy studies were prepared and used within 2 hours. All absorption and fluorescence spectra were collected using quartz cuvettes (1 mL, 1 cm path length).
# Samples were excited at 730 nm with optical density≤0.05. First, photons were recorded with an integrating sphere after the excitation of a blank solvent reference, then the reference was replaced by a sample solution, and the spectrum (720-875 nm) was acquired again. The quantum yield was calculated by the equation below:
# [formula] where P is the number of photons, F is the fluorescence intensity and E is the intensity at the excitation wavelength. Experiments were conducted in triplicate, with the reported absolute quantum yields corresponding to the mean value±standard deviation.
# The fluorescence spectrum of each solution was obtained with excitation at 720 nm, and the integrated area was used to calculate the quantum yield according to the following equation:
# [formula] where η is the refractive index of the solvent, I is the integrated fluorescence intensity, and A is the absorbance at a chosen wavelength. The estimated error for this method is ±15%.
# [3] = Stability of 1.0 mM aqueous solutions stored at 4° C. in the dark (1H NMR); format: physicochemical; settings: for Purity of aqueous solution: 1.0 mM
# Experimental: After 7 days and 28 days (separate samples), 1 mL aliquots were taken from each stock solution, the solutions were lyophilized, the solid residue was dissolved in methanol-d4 and ^1H NMR spectra were acquired.
# After 7 days and 28 days (separate samples), 1 mL aliquots were taken from each stock solution, the solutions were lyophilized, the solid residue dissolved in methanol-d4 and ^1H NMR spectra were acquired.
# [4] = Stability of 1.0 mM aqueous stock solutions at room temperature under low photon intensity storage (1H NMR, reverse phase TLC); settings: for Stability of stored stock solution, ICG versus ICG-d5 (degradation to oxidative dimer): one week; for Stability of stored stock solution, ICG versus ICG-d5 (degradation to oxidative dimer) / Conversion to oxidative dimer: reverse phase TLC; for Conversion to oxidative dimer: 3-day old 1.0 mM stock solution, primarily in the dark at room temperature
# Experimental: Every day, a 50 μL aliquot was removed from each stock solution, lyophilized, and stored as a solid at −20° C.
# At each time point, a 1.0 mL aliquot was taken from the stock solution, the aliquot was lyophilized, the solid residue was dissolved in 0.60 mL of methanol-d4, and a ^1H NMR spectrum was acquired.
# The solutions were stored at room temperature and low photon intensity conditions (only exposed to lab lights during sample preparation and when aliquots were removed from samples). After 72 h and 120 h, 1 mL aliquots were taken from each stock solution and lyophilized. In each case, the solid residue was dissolved in 0.6 mL of methanol-d4 and a ^1H NMR spectrum was recorded.
# The second set of dye stability experiments were designed to mimic the low photon intensity storage conditions experienced by a typical reconstituted dose in water before it is administered in a clinical setting. Thus, stock solutions of the dyes were exposed to the atmosphere and laboratory lights during the initial reconstitution and periodic sampling, but otherwise stored as capped vials in the dark at room temperature.
# [5] = cited from earlier work
# [6] = 20 μg/mL solution in water, 24 hours; cited from earlier work
# [7] = Photobleaching under high intensity irradiation (150 W Xenon lamp, 620 nm long-pass filter); settings: 6 h irradiation, 1.0 mM or 0.05 mM in water or ethanol, TLC
# [8] = 1.0 mM in water, room temperature, low photon intensity, storage 72 h, 1H NMR
# [9] = 1.0 mM in water, room temperature, low photon intensity, storage 120 h, 1H NMR
# [10] = 1.0 mM in water, room temperature
# Sequence of bovine serum albumin (BSA) (P02769 25-607): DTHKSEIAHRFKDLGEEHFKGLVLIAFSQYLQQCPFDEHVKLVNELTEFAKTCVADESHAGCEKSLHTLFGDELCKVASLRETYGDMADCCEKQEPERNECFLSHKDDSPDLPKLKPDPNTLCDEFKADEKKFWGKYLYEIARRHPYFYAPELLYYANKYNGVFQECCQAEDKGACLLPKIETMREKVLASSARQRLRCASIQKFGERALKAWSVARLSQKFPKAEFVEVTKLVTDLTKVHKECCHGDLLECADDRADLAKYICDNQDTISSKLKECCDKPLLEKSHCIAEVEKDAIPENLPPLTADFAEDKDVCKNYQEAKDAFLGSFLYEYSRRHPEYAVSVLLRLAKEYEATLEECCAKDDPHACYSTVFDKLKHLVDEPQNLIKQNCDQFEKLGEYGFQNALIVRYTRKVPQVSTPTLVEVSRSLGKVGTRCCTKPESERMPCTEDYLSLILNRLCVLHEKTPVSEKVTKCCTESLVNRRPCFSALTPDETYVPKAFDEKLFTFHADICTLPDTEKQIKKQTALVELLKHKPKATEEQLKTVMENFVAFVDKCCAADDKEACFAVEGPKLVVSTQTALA
Structure (SMILES),λ abs max ([2]; DMSO) [nm],λ em max ([2]; DMSO) [nm],ε ([2]; DMSO),ΦF (fluorescence quantum yield) ([2]; DMSO) [%],Brightness ([2]; DMSO),λ abs max ([2]; FBS) [nm],λ em max ([2]; FBS) [nm],ε ([2]; FBS),ΦF (fluorescence quantum yield) ([2]; FBS) [%],Brightness ([2]; FBS),Purity of aqueous solution ([3]; 7 days storage) [%],Purity of aqueous solution ([3]; 28 days storage) [%],"Association constant Ka, titration isotherm fitted to 1:1 model [1]","Weight percentage remaining in aqueous stock solution [4, 8] [wt %]","Weight percentage remaining in aqueous stock solution [4, 9] [wt %]","Stability of stored stock solution, ICG versus ICG-d5 (degradation to oxidative dimer) [4, 10]",Conversion to oxidative dimer [4] [%],further results
CC1(C)C(=CC=CC=C(C=CC2=[N+](CCCCS(=O)(=O)[O-])c3ccc4ccccc4c3C2(C)C)C(C=CC2=[N+](CCCCS(=O)(=O)[O-])c3ccc4ccccc4c3C2(C)C)=CC=CC=C2N(CCCCS(=O)(=O)O)c3ccc4ccccc4c3C2(C)C)N(CCCCS(=O)(=O)O)c2ccc3ccccc3c21 [compound 1],–,–,–,–,–,–,–,–,–,–,–,–,–,–,–,–,–,"Kd ([1]; fluorescence titration, 2 μM BSA, read-out: Dissociation constant (Kd) of BSA binding): 34 µM"
"[2H]C(=C\C1=[N+](CCCCS(=O)(=O)[O-])c2ccc3ccccc3c2C1(C)C)/C([2H])=C([2H])/C([2H])=C([2H])/C=C1/N(CCCCS(=O)(=O)[O-])c2ccc3ccccc3c2C1(C)C.[Na+] [ICG-d5, Indocyanine Green-d5]",793,819,"253,000 M^−1cm^−1",19.8 ± 0.5,"49,000",796,813,"205,000 M^−1cm^−1",10.5 ± 0.3,"21,000",99,85,(3.8±0.6)×10^5 M^−1,86.0 ± 0.8,80.9 ± 1.2,substantially more stable,~2,Stability of stock solution in a refrigerator ([3]; 7 and 28 days): increased stability in a refrigerator
"CC1(C)C(/C=C/C=C/C=C/C=C2/N(CCCCS(=O)(=O)[O-])c3ccc4ccccc4c3C2(C)C)=[N+](CCCCS(=O)(=O)[O-])c2ccc3ccccc3c21.[Na+] [ICG, Indocyanine Green, reference compound]",795,820,"224,000 M^−1cm^−1",16.7 ± 0.6,"37,000",800,813,"197,000 M^−1cm^−1",9.7 ± 0.4,"19,000",85,52,(3.4±0.5)×10^5 M^−1,73.6 ± 1.7,67.4 ± 1.0,more degradation,~20,"Water solubility [5]: 1000 µg/mL; ICG remaining [6]: 20%; Photostability versus concentration and solvent [7]: 1.0 mM ICG solution in water is more photostable than a 0.05 mM ICG solution in water; Effect of H2O2 on formation of oxidative dimer 1 ([4]; 1.0 mM in water, 5 h, H2O2 10 molar equivalents, TLC): higher amount of oxidative dimer 1; Effect of air and light exposure on formation of oxidative dimer 1 ([4]; 1.0 mM in water, 30 h, room temperature, TLC and NMR): inhibits formation of oxidative dimer 1; Effect of additives on dimerization to oxidative dimer 1 ([4]; 1 mM in water, additives 10 molar equivalents, 24 h, room temperature, low photon intensity, TLC): promoted by the presence of NaI; also recorded: stopped by base (NaHCO3 and NaOAc), singlet oxygen quencher (NaN3) and reductant (Na2SO3 and Na ascorbate); Dimerization in water versus ethanol ([4]; 1.0 mM, 48 h, room temperature, low photon intensity, TLC): favored in water; Degradation to oxidative dimer 1 versus concentration ([4]; water, different concentrations, 72 h, room temperature, low photon intensity, 1H NMR): slower at higher concentrations"
